Legend:
GST-GRP1-PH = target: T1, GST-GRP1-PH (Homo sapiens, UniProt O43739); test: Competitive FP assay, displacement of fluorescent tracer from GST-GRP1-PH; type: binding; conditions: amounts over 100-fold greater than PI(3,4,5)P3
T1 construct: The PH domain of GRP1 (general receptor for phosphoinositides) was used as a detector for PI(3,4,5)P3
T1 sequence (O43739 264-381 limits assumed): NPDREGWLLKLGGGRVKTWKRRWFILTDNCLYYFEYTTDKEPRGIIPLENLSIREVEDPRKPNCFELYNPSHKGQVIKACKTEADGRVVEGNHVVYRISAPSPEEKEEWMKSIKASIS
Method: In order to use these reagents in a competitive FP assay, unlabeled phosphoinositide products of an enzymatic reaction must be able to successfully compete with the labeled tracer for interaction with the binding proteins. In addition, the level of cross-reactivity of binding proteins with the phosphoinositides used as enzyme substrates should be minimal. To examine the suitability of these phosphoinositide binding proteins for this application, competition assays were performed using optimal amounts of lipid binding proteins and fluorescent tracers, mixed with increasing amounts of diC8-phosphoinositide competitors.
The sensitivity of this approach for detecting conversion of PI(4,5)P2 to PI(3,4,5)P3 was evaluated using GST-GRP1-PH protein and FAM and BODIPY®-TMR labeled tracers. Competition assays in which both diC8-PI(3,4,5)P3 and diC8-PI(4,5)P2 were added at increasing concentrations were performed.

recombinant PI 3-Kinaseα = recombinant PI 3-Kinaseα (Homo sapiens, UniProt P42336); test: Competitive FP assay for PI 3-Kinase activity; type: biochemical; conditions: substrate conversion at constant enzyme levels
Sequence of recombinant PI 3-Kinaseα (P42336 whole entry): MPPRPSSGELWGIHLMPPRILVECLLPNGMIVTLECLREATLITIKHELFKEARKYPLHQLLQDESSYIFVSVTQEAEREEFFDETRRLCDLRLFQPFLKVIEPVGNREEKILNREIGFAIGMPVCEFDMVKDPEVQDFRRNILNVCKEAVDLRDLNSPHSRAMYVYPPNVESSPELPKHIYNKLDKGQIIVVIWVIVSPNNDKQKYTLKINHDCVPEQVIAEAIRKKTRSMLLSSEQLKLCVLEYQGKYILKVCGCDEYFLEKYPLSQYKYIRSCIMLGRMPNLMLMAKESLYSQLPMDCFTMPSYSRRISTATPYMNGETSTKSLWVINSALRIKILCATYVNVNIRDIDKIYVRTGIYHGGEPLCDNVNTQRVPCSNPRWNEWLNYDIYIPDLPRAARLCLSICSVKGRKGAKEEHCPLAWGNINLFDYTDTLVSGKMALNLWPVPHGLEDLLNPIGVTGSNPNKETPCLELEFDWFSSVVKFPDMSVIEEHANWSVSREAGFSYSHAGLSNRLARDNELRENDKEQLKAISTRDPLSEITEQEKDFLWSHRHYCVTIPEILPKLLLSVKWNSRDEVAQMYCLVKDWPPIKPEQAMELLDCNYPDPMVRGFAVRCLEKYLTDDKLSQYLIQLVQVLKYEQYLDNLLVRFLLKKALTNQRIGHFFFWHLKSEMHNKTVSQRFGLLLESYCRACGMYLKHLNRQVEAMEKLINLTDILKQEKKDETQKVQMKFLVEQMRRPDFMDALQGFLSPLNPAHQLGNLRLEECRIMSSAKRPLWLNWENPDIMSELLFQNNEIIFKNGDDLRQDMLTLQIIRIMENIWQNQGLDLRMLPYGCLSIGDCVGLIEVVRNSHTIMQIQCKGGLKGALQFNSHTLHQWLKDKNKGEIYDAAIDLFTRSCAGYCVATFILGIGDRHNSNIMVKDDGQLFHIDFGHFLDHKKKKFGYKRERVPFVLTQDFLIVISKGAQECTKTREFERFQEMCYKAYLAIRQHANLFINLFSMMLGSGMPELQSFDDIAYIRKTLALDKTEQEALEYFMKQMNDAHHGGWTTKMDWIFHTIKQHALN
Sequence of recombinant PI 3-Kinaseα (P27986 whole entry partner): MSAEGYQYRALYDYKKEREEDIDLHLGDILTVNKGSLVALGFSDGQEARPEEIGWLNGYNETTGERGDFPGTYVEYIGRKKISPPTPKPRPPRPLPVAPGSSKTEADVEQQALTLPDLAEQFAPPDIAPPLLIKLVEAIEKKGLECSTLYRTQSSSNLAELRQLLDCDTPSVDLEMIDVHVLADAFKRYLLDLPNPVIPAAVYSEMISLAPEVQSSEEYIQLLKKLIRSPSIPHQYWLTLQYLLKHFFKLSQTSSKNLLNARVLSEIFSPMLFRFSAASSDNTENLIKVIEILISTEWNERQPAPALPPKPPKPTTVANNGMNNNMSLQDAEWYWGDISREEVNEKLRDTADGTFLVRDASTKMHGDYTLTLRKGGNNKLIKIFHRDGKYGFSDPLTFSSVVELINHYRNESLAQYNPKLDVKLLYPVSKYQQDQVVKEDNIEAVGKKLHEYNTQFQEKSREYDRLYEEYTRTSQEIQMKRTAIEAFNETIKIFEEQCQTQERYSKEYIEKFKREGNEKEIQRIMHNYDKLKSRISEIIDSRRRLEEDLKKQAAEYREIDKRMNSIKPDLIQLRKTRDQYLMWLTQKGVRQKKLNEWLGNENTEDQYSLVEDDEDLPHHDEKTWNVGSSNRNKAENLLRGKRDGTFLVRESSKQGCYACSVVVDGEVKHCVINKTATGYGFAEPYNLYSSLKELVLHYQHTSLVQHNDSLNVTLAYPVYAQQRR
Source text: The FP assays developed for the detection of PI 3-Kinase and SHIP2 activity were designed as competitive assays in which the enzyme product would compete with a fluorescently labeled synthetic phosphoinositide or inositol phosphate tracer for binding to a specific phosphoinositide binding protein. As the products of the enzymatic reaction increase, the soluble phosphoinositide products compete for the interaction of the binding protein and the fluorescent tracer, leading to a decrease in mP values as the amount of depolarized free tracer increases. Thus, changes in polarization should be inversely proportional to the degree of enzyme activity.
These assays involve four steps. First, the enzyme and substrate phosphoinositide are combined in an appropriate reaction buffer and the reaction is allowed to proceed. […] Finally, polarization values are measured to determine the extent of enzyme activity in the reaction.
The ability of FP competitive assays to detect the production of phosphoinositide products of PI 3-Kinaseα activity was tested using recombinant PI 3-Kinaseα. […] The production of PI(3,4,5)P3 was detected as a decrease in mP values as enzyme products compete with I(1,3,4,5)P4-BODIPY®-TMR for interaction with the binding protein.

effect on interaction of binding protein with fluorescent tracers (GST-GRP1-PH): minimal effect
Km (recombinant PI 3-Kinaseα): ~3000 nM
Structure (SMILES): CCCCCCCC(=O)OC[C@H](COP(=O)(O)O[C@@H]1[C@H](O)[C@H](O)[C@@H](OP(=O)(O)O)[C@H](OP(=O)(O)O)[C@H]1O)OC(=O)CCCCCCC [diC8-PI(4,5)P2]

From patent US20050009124A1, “Assays for detection of phosphoinositide kinase and phosphatase activity” (Echelon Biosciences Incorporated, priority 2001, published 2005)
